The results in this text go back to patent US9079886B2, “Substituted triazole derivatives as gamma secretase modulators” (Janssen Pharmaceuticals, Inc., priority 2010, dated 2015).

Like-named read-outs stand apart in the source and are kept apart here.

Data set [1] has as its system Aβ42 and Aβtotal in the soluble fraction of brain homogenates. The experiment in a line: In vivo Aβ42 lowering: brain soluble Aβ42 and Aβtotal by ELISA after a single oral dose. Further details: species or system mouse. To be noted: dose 30 mg/kg oral dosing, 4 h after dosing; for response vs control in vivo at 30 mg/kg: Mus musculus, po, 4 h. The text has this:
To determine whether acute administration of an Aβ42 lowering agent would reduce Aβ42 levels in vivo, non-transgenic rodents, e.g. mice or rats were used. Animals treated with the Aβ42 lowering agent were examined and compared to those untreated or treated with vehicle and brain levels of soluble Aβ42 and total A13 were quantitated by standard techniques, for example, using ELISA. Treatment periods varied from hours (h) to days and were adjusted based on the results of the Aβ42 lowering once a time course of onset of effect could be established.
(§1) A typical protocol for measuring Aβ42 lowering in vivo is shown but it is only one of many variations that could be used to optimize the levels of detectable Aβ. For example, Aβ42 lowering compounds were formulated in 20% of Captisol® (a sulfobutyl ether of β-cyclodextrin) in water or 20% hydroxypropyl β cyclodextrin. The Aβ42 lowering agents were administered as a single oral dose or by any acceptable route of administration to overnight fasted animals. After 4 h, the animals were sacrificed and Aβ42 levels were analysed.
(§2) Blood was collected by decapitation and exsanguinations in EDTA-treated collection tubes. Blood was centrifuged at 1900 g for 10 minutes (min) at 4° C. and the plasma recovered and flash frozen for later analysis. The brain was removed from the cranium and hindbrain. The cerebellum was removed and the left and right hemisphere were separated. The left hemisphere was stored at −18° C. for quantitative analysis of test compound levels. The right hemisphere was rinsed with phosphate-buffered saline (PBS) buffer and immediately frozen on dry ice and stored at −80° C. until homogenization for biochemical assays.
Mouse brains from non-transgenic animals were resuspended in 8 volumes of 0.4% DEA (diethylamine)/50 mM NaCl containing protease inhibitors (Roche-11873580001 or 04693159001) per gram of tissue, e.g. for 0.158 g brain, add 1.264 ml of 0.4% DEA. All samples were homogenized in the FastPrep-24 system (MP Biomedicals) using lysing matrix D (MPBio #6913-100) at 6 m/s for 20 seconds. Homogenates were centrifuged at 221.300×g for 50 min. The resulting high speed supernatants were then transferred to fresh eppendorf tubes. Nine parts of supernatant were neutralized with 1 part 0.5 M Tris-HCl pH 6.8 and used to quantify Aβtotal and Aβ42.
To quantify the amount of Aβtotal and Aβ42 in the soluble fraction of the brain homogenates, Enzyme-Linked-Immunosorbent-Assays were used. Briefly, the standards (a dilution of synthetic Aβ1-40 and Aβ-42, Bachem) were prepared in 1.5 ml Eppendorf tube in Ultraculture, with final concentrations ranging from 10000 to 0.3 pg/ml. The samples and standards were co-incubated with HRPO-labelled N-terminal antibody for Aβ42 detection and with the biotinylated mid-domain antibody 4G8 for Aβtotal detection. 50 μl of conjugate/sample or conjugate/standards mixtures were then added to the antibody-coated plate (the capture antibodies selectively recognize the C-terminal end of Aβ42, antibody JRF/cAB42/26, for Aβ42 detection and the N-terminus of Aβ, antibody JRF/rAβ/2, for Aβtotal detection). The plate was allowed to incubate overnight at 4° C. in order to allow formation of the antibody-amyloid complex. Following this incubation and subsequent wash steps the ELISA for Aβ42 quantification was finished by addition of Quanta Blu fluorogenic peroxidase substrate according to the manufacturer's instructions (Pierce Corp., Rockford, Il). A reading was performed after 10 to 15 min (excitation 320 nm/emission 420 nm).
For Aβtotal detection, a Streptavidine-Peroxidase-Conjugate was added, followed 60 min later by an addional wash step and addition of Quanta Blu fluorogenic peroxidase substrate according to the manufacturer's instructions (Pierce Corp., Rockford, Il). A reading was performed after 10 to 15 min (excitation 320 nm/emission 420 nm). […]

Data set [2] in a line: Central brain availability: compound levels in plasma and brain. The class given is in vivo. Particulars: mouse, dose 30 mg/kg oral dosing. The procedure:
as §1, §2
Also the central brain availability of Compounds 3, 5, 10 and A were measured:
The results are shown in Table 5 (dose 30 mg/kg oral dosing; 4 hours): […]

Data set [3] is described as follows: Liver metabolic stability assay, mouse liver microsomes. The data set is classed as in vitro ADME. Particulars: 1 μM substrate, 1 mg/ml protein, 37° C., 15 minutes. How it is done: (§3) Each compound was spiked into a suspension of liver microsomes prepared from the species under investigation, at a final substrate concentration of 1 μM, and a protein concentration of 1 mg/ml, and pre-incubated at 37° C. for 11 minutes. The incubation also contains a NADPH (3-nicotinamide adenine dinucleotide phosphate, reduced) regenerating system. After this preincubation period, NADP (β-nicotinamide adenine dinucleotide phosphate) was added to the active incubations, and the incubations maintained at 37° C. for 15 minutes, during which period metabolism can take place. After 15 minutes, 2 volumes of DMSO (dimethylsulfoxide) were added to each active incubation to inactivate and precipitate proteins. Control incubations were not preincubated at 37° C., but instead were quenched by the addition of DMSO prior to the addition of NADP. Following centrifugation, the supernatant from each incubation was transferred to a separate analysis plate, and analysed for the concentration of the parent compound by LC/MS/MS using a compound-specific LC/MS/MS method and a generic HPLC gradient. The turnover of the parent compound is expressed as the % reduction in concentration in the analyte samples compared to that in the control incubations. Each incubation is performed in triplicate.

A short description of data set [4]: Liver metabolic stability assay, human liver microsomes. The data set is classed as in vitro ADME. To be noted: 1 μM substrate, 1 mg/ml protein, 37° C., 15 minutes. The procedure: as §3
Setting [5] is: untreated animals (Ctrl) set at 100, 30 mg/kg.
[6] abbreviates: untreated animals (Ctrl) set at 100, read-out: Aβ42 (% vs Ctrl) _Mean.
[7] abbreviates: untreated animals (Ctrl) set at 100, read-out: Aβtotal (% vs Ctrl)_Mean.

Regarding `COc1cc(Nc2nc(N3CCCC(C(F)(F)F)C3)n(C(C)C)n2)ccc1-n1cnc(C)n1` (single isomer, unassigned) [Compound 109], the melting point was determined as 140.1 °C. Further, in data set [1] (setting [5]), the “Aβ42 (% vs Ctrl) _Mean” value turned out to be 85 % vs Ctrl and the “Aβtotal (% vs Ctrl)_Mean” value is 117 % vs Ctrl.
Turning to `COc1cc(Nc2nc(N3CCCC(C(F)(F)F)C3)n(C(C)C)n2)ccc1-n1cnc(C)n1` (racemic) [Compound 59], the melting point is 134 °C. Moreover, in data set [1] (setting [6]), the response vs control in vivo at 30 mg/kg came to 69%. Besides, the response vs control in vivo at 30 mg/kg in data set [1] (setting [7]) turned out to be 94%.
Regarding `Cc1cc(-c2ccc(Nc3nc(N4CCOC(C(F)(F)F)C4)n(C(C)C)n3)cc2)ccn1` (centres unmarked) [Compound 133], the values for the response vs control in vivo at 30 mg/kg in data set [1] (setting [6]) and in data set [1] (setting [7]) were 67% and 94%, respectively.
`COc1cc(Nc2nc(Oc3cccc(C(F)(F)F)c3)n(C(C)C)n2)ccc1-n1cnc(C)n1` [Compound 5] registered a melting point of 166.6 °C. Further, the concentration at 4 h in data set [2] (brain, read-out: Brain) came out at 1630 ng/g. The concentration at 4 h in data set [2] (plasma, read-out: Plasma) amounted to 1630 ng/mL.
Consider `COc1cc(Nc2nc(N3CCCC(C(F)(F)F)C3)n(C(C)C)n2)ccc1-c1ccnc(C)c1` (centres unmarked) [Compound 67], for which the response vs control in vivo at 30 mg/kg came out at 60% in data set [1] (setting [6]) and 89% in data set [1] (setting [7]).
`COc1cc(Nc2nc(-c3cccc(C(F)(F)F)c3)n(C(C)C)n2)ccc1-n1cnc(C)c1` [Compound 46]: the melting point is 186.8 °C. Also, the response vs control in vivo at 30 mg/kg in data set [1] (setting [6]) was 61%. In addition, the response vs control in vivo at 30 mg/kg in data set [1] (setting [7]) is 98%.
For the compound `COc1cc(Nc2nc(N3CCCC(C(F)(F)F)C3)n(C(C)C)n2)ccc1-n1cnc(C)n1` (single isomer, unassigned) [Compound 108], the melting point worked out at 141.6 °C. In addition, the response vs control in vivo at 30 mg/kg in data set [1] (setting [6]) is 70%. In data set [1] (setting [5]), the “Aβtotal (% vs Ctrl)_Mean” value is 94 % vs Ctrl.
For the compound `COc1cc(Nc2nc(Oc3c(F)cccc3Cl)n(C(C)C)n2)ccc1-c1ccnc(C)c1` [Compound 160], the response vs control in vivo at 30 mg/kg was 77% in data set [1] (setting [6]) and 83% in data set [1] (setting [7]).
`Cc1cc(-c2ccc(Nc3nc(Oc4ccccc4Cl)n(C(C)C)n3)cc2)ccn1` [Compound 140] gave a melting point of 142.5 °C. Besides, the response vs control in vivo at 30 mg/kg in data set [1] (setting [6]) came to 83%. Besides, the response vs control in vivo at 30 mg/kg in data set [1] (setting [7]) was determined as 86%.
With `COc1cc(Nc2nnc(-c3ccc(F)cc3)[nH]2)ccc1-n1cnc(C)c1` [Compound A, reference compound], the concentration at 4 h is 0 ng/g in data set [2] (brain, read-out: Brain) and 0 ng/mL in data set [2] (plasma, read-out: Plasma). Further, in data set [3], the “turnover of the parent compound (% reduction in concentration vs control incubations), mouse liver microsomes” value turned out to be 22%. For the same compound, the “turnover of the parent compound (% reduction in concentration vs control incubations), human liver microsomes” value in data set [4] is given as 64%. Besides, the figures for the response vs control in vivo at 30 mg/kg in data set [1] (setting [6]) and in data set [1] (setting [7]) were 101% and 106%, respectively.
For the compound `Cc1cc(-c2ccc(Nc3nc(-c4cccc(C(F)(F)F)c4)n(C(C)C)n3)cc2F)ccn1` [Compound 138], the melting point amounted to 199.6 °C.
Take `COc1cc(Nc2nc(Oc3ccccc3Cl)n(C(C)C)n2)ccc1-n1cnc(C)n1` [Compound 3]: the concentration at 4 h was determined as 8510 ng/g in data set [2] (brain, read-out: Brain) and 7740 ng/mL in data set [2] (plasma, read-out: Plasma).
`COc1cc(Nc2nc(Oc3ccccc3Cl)n(C(C)C)n2)ccc1-c1ccnc(C)c1` [Compound 69]: the response vs control in vivo at 30 mg/kg was 63% in data set [1] (setting [6]) and 97% in data set [1] (setting [7]).
The compound `COc1cc(Nc2nc(Cc3cccc(C(F)(F)F)c3)n(CCNC(C)=O)n2)ccc1-n1cnc(C)c1` [Compound 1] showed a melting point of 179 °C.
The compound `Cc1cc(F)ccc1Oc1nc(Nc2ccc(-c3ccnc(C(F)(F)F)c3)cc2)nn1C(C)C` [Compound 177] came in with a melting point of 165.9 to 166.9 °C.
Still for that read-out and setting: next, `COc1cc(Nc2nc(N3CCCC(c4ccccc4)C3)n(C(C)C)n2)ccc1-n1cnc(C)c1` (centres unmarked) [Compound 18]: 164.2 °C; `COc1cc(NC(=O)c2nc(Oc3ccc(F)cc3C)n(C(C)C)n2)ccc1-n1cnc(C)c1` [Compound 9]: 158.4 °C.
As to `COc1cc(Nc2nc(N3CCCC(C(F)(F)F)C3)n(C(C)C)n2)ccc1-n1cnc(C)c1` (centres unmarked) [Compound 54], the melting point worked out at 173 °C. The response vs control in vivo at 30 mg/kg in data set [1] (setting [6]) was 46%. Also, the response vs control in vivo at 30 mg/kg in data set [1] (setting [7]) turned out to be 88%.
`COc1cc(Nc2nc(N3CCCN(C(C)=O)CC3)n(C(C)C)n2)ccc1-c1ccnc(C)c1` [Compound 176] returned a melting point of 158.4 °C.
On the same count and under the same terms, the same measure for `Cn1nc(Nc2ccc(-c3ccnc(C(F)(F)F)c3)cc2)nc1-c1cccc(C(F)(F)F)c1` [Compound 178]: 179.2 °C.
`Cc1cc(-c2ccc(Nc3nc(Oc4c(C)cccc4Cl)n(C(C)C)n3)cc2)ccn1` [Compound 155] displayed a melting point of 222.6 °C.
On the same count and under the same terms, next, `Cc1cc(-c2ccc(Nc3nc(Oc4cc(F)ccc4Cl)n(C(C)C)n3)cc2)ccn1` [Compound 161]: 132.7 °C; `COc1cc(Nc2nc(-c3cccc(C(F)(F)F)c3)n(C(C)C)n2)ccc1-c1ccnc(C)c1` [Compound 136]: 221.9 °C; `COc1cc(Nc2nc(N3C[C@@H](C)O[C@@H](C)C3)n(C(C)C)n2)ccc1-n1cnc(C)c1` [Compound 55]: 189.4 °C.
In turn, `COc1cc(Nc2nc(Oc3ccccc3Cl)n(CC(OC)OC)n2)ccc1-c1ccnc(C)c1` [Compound 147] returned a melting point of 90.1 °C.
`COc1cc(Nc2nc(Oc3ccccc3Cl)n(C(C)C)n2)ccc1-n1cnc(C)c1` [Compound 52] registered a melting point of 167.1 °C. Further, the response vs control in vivo at 30 mg/kg in data set [1] (setting [6]) stood at 45%. In data set [1] (setting [7]), the response vs control in vivo at 30 mg/kg was found to be 112%.
For `Cc1cc(-c2ccc(Nc3nc(Oc4ccccc4Cl)n(C(C)C)n3)cc2F)ccn1` [Compound 141], the response vs control in vivo at 30 mg/kg came to 78% in data set [1] (setting [6]) and 98% in data set [1] (setting [7]).
Turning to `COc1cc(Nc2nc(N3CCOC(c4cccc(C)c4)C3)n(C(C)C)n2)ccc1-n1cnc(C)c1` (centres unmarked) [Compound 58], the response vs control in vivo at 30 mg/kg is 88% in data set [1] (setting [6]) and 89% in data set [1] (setting [7]).
